Reference: patent US20260015359A1, “2-(1,8-DIETHYL-1,3,4,9-TETRAHYDROPYRANO[3,4-B]INDOL-1-YL)-1-(PIPERIDIN-1-YL)ETHAN-1-ONE ETODOLAC DERIVATIVE AS EUKARYOTIC ELONGATION FACTOR 2 KINASE (EEF2K) INHIBITOR FOR TARGETED CANCER THERAPY” (BAHCESEHIR UNIVERSITESI, priority 2023, published 2026)

Key:
eEF2K [1] = target: T1, eEF2K (Homo sapiens, UniProt O00418); experiment: Western blot analysis of eEF2K activity (p-EF2 Thr56) in MDA-MB-231 cells; format: cell-based; conditions: for eEF2K inhibition potential: western blot, 2.5 to 20 micromolar
T1 sequence (O00418 1-725): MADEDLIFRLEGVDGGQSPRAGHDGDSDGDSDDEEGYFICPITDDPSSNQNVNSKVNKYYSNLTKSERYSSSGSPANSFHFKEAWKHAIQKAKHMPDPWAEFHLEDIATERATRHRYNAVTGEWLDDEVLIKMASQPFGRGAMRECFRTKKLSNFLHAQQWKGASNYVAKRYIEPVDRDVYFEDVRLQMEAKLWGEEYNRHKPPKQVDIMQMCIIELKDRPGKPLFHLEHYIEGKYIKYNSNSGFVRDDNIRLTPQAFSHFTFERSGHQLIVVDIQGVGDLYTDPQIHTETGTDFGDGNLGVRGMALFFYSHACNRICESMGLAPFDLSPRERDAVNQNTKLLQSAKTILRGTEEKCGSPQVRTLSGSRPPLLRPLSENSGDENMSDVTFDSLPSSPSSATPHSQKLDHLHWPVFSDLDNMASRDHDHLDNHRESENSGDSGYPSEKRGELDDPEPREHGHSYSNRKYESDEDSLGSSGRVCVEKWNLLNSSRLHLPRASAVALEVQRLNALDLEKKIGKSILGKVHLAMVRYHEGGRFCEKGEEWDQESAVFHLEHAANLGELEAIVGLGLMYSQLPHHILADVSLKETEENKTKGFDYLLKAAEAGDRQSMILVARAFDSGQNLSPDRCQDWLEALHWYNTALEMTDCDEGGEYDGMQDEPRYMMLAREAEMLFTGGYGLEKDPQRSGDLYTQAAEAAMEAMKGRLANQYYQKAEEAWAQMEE
Procedure: MeOH: distilled water by volume (%) (70:30) was used as the mobile phase for HPLC analysis for the inventive compound and the flow rate was set to 1 mL min^−1. Triple negative breast cancer (TNBC) cell lines (ER-, PR- and HER2-) MDA-MB-231 cells were purchased from the American Type Culture Collection (ATCC) (Manassas, VA, USA). MDA-MB-231 cells were cultured in Dulbecco's modified Eagle's medium (DMEM)/F12 supplemented with 10% FBS (Fetal Bovine Serum) and 100 U mL^−1 penicillin and streptomycin. Specific antibodies (p-EF2 (Thr56) (2331S), eEF2 (2332S), eEF2K (3692S) and GAPDH (5174S)) were purchased from Cell Signaling Technology (CST).
Western blot analysis was carried out according to previously reported studies to evaluate the eEF2K inhibition activity for the synthesized compounds. The synthesized compound was applied to MDA-MB-231 cells in the range of various concentrations from 2.5 to 20 micromolar for 2 h treatment. The expression levels of p-EF2 (Thr56) inhibition and eEF2K activity were determined by using related antibodies such as p-EF2 (Thr56), eEF2 and eEF2K. Glyceraldehyde 3-phosphate dehydrogenase (GAPDH) was used as a loading control.
To determine the effects of the synthesized compounds in inhibiting eEF2K activity in TNBC, MDA-MB-231 cells, we performed western blot analysis at concentrations ranging from 2.5 micromolar to 20 micromolar in a dose-dependent manner. eEF2K inhibition was detected by decreased phosphorylation levels of EF2 (p-EF2-Thr-56), a direct downstream substrate of the enzyme.

cancer cells = conditions: literature; cited from earlier work
eEF2K [2] = target: T1, eEF2K; conditions: literature; cited from earlier work

Row | Compound | eEF2K inhibition potential (eEF2K [1]) | eEF2K inhibition (reported) (eEF2K [2]) | also measured
1 | CCc1cccc2c3c([nH]c12)C(CC)(CC(=O)O)OCC3 (racemic) [Etodolac, (R,S)-2-[1,8-diethyl-1,3,4-tetrahydropyrano [3,4-b]indol-1-yl]acetic acid] | did not show any inhibition potential |  | 
2 | CCn1c(=O)c2cc(C(N)=O)c(N)nc2n(C2CC2)c1=O [A484954] |  |  | dose showing inhibition effect in cancer cells (cancer cells): 75 µM
3 | CCc1cccc2c3c([nH]c12)C(CC)(CC(=O)N1CCCCC1)OCC3 (centres unmarked) [Inventive compound, 2-(1,8-diethyl-1,3,4,9-tetrahydropyrano [3,4-b]indol-1-yl)-1-(piperidin-1-yl) ethan-1-one] | high inhibition potential |  | eEF2K inhibition (reduced levels of p-EF2) (eEF2K [1]; 2.5 micromolar, compared to etodolac (EC)): marked inhibition; inhibition of phospho-eEF2 (Thr56) (eEF2K [1]; 20 micromolar, 2 hours treatment): highest inhibition
4 | CCCCCCCCCCCCCCCCn1cc[n+](Cc2ccccc2)c1C.[I-] [NH125] |  | does not inhibit EF2K | 
5 | Cc1cc(C=C2C(=O)C=CC2=O)cc(C)c1O [TX1918] |  | did not show significant eEF2K inhibition | concentration reported to inhibit eEF2K (eEF2K [2]): 10 µM
